Reference: article PMC8448819, “The Arabidopsis MIK2 receptor elicits immunity by sensing a conserved signature from phytocytokines and microbes” (Nature Communications, 2021)
Several values for one entry are separate records, joined by “and”; a condition that tells them apart may be missing. Equal entries are not always repeated. Entries after “also recorded” stand apart in the source; their conditions may differ. Where two headings read alike, the source gives them in different places.

Experiments:
[1] = system: mik2 mutant seedlings; assay: ROS assay (luminol), mik2 mutants; type: in vivo, Arabidopsis thaliana; conditions: mik2 mutants, 100 nM SCOOPs or 1 µM FocSCOOPL
Description: (§1) ROS burst was determined by a luminol-based assay. […] Then, ddH2O was replaced by 200 µL of reaction solution containing 50 µM of luminol, and 10 µg/mL of horseradish peroxidase (Sigma-Aldrich) supplemented with or without 100 nM or 1 μM peptide. Luminescence was measured immediately after adding the solution with a luminometer (Glomax 20/20n, Promega) with a one-second interval for 15 min. The total values of ROS production were indicated as means of the relative light units (RLUs).

[2] = system: bak1-4 and bak1-5/serk4 mutant seedlings; assay: ROS assay (luminol), coreceptor mutants; type: in vivo, Arabidopsis thaliana
Description: as §1

[3] = system: bik1/pbl1 mutant seedlings; assay: ROS assay (luminol), bik1/pbl1; type: in vivo, Arabidopsis thaliana; conditions: bik1/pbl1, 100 nM SCOOP12 or 1 µM FocSCOOPL
Description: as §1

[4] = system: rbohD mutant seedlings; assay: ROS assay (luminol), rbohD; type: in vivo, Arabidopsis thaliana
Description: as §1

[5] = system: p35S::Aequorin seedlings; type: in vivo, Arabidopsis thaliana
[6] = system: MPK3, MPK4 and MPK6 phosphorylation, mik2-1 seedlings; assay: MAPK assay (α-pERK1/2 immunoblot), mik2-1; type: in vivo, Arabidopsis thaliana; parameters: dose or concentration left out as unconfirmed; conditions: mik2-1, α-pERK1/2 immunoblot
[7] = system: MIK2-BAK1 association; assay: Co-immunoprecipitation MIK2-BAK1; type: cell-based, Arabidopsis thaliana; conditions: protoplasts, MIK2-HA and BAK1-FLAG, 15 min, co-IP
Description: For co-IP assays in protoplasts, protoplasts were co-transfected with pHBT-35S::MIK2-HA and pHBT-35S::BAK1-FALG or pHBT-35S::SERK4-FLAG at 50 μg DNA for 500 μL protoplasts at the density of 2 × 10^5/mL for each sample and were incubated for 12 h. After treatment with 1 µM SCOOP peptides for 15 min, samples were collected by centrifugation at 200 × g for 2 min and lysed in 300 μL IP buffer (20 mM Tris-HCl, pH 7.5, 100 mM NaCl, 1 mM EDTA, 2 mM DTT, 10% [v/v] Glycerol, 0.5% [v/v] Triton X-100 and protease inhibitor cocktail from Sigma) by vortexing. After centrifugation at 10,000 × g for 10 min at 4 °C, 30 μL of supernatant was collected for input controls. The remaining supernatant was pre-incubated with protein-G-agarose beads at 4 °C for 1 h with gentle shaking at […] on a rocker. IP was carried out with α-FLAG agarose for 3 h at 4 °C. Beads were collected by 500 × g centrifugation for 2 min and washed three times with washing buffer (20 mM Tris-HCl, pH 7.5, 100 mM NaCl, 1 mM EDTA, 0.1% [v/v] Triton X-100) and once with 50 mM Tris-HCl, pH 7.5. Immunoprecipitated proteins and input proteins were analyzed by immunoblotting with α-HA (1:3000; Roche, Cat # 12013819001) or α-FLAG antibodies (1:3000; Sigma-Aldrich, Cat # A8592).
For co-IP assays in transgenic seedlings, leaves of 4-week-old pMIK2::MIK2-GFP transgenic plants were hand-inoculated with 1 μM SCOOP10^B or SCOOP12 and were treated for 30 min, followed by total protein isolation with extraction buffer (50 mM Tris-HCl, pH 7.5, 150 mM NaCl, 1% [v/v] NP-40 and 1:200 protease inhibitor cocktail from Sigma). Co-IP was carried out the same as for co-IP with protoplasts except that GFP-Trap agarose beads (Chromotek) were used instead. Immunoprecipitated proteins and input proteins were analyzed by immunoblotting with α-GFP (1:3500; Roche, Cat # 11814460001) or α-BAK1 antibodies (1:2000)[64].

[8] = system: Arabidopsis WT (Col-0) seedlings; type: in vivo, Arabidopsis thaliana
[9] = molecular target: T1, MIK2^ECD (Arabidopsis thaliana, UniProt Q8VZG8); assay: Isothermal titration calorimetry (ITC); type: binding; conditions: 25 °C, pH 7.0; 600 μM peptide into 30 μM MIK2^ECD
T1 construct: MIK2^ECD (residues 1–707) and BAK1^ECD (residues 1–220) were amplified by PCR from Col-0 cDNA; 6xHIS (C); made in house; host or cells: High Five insect cells (Bac-to-Bac baculovirus system)
T1 sequence (Q8VZG8 44-707): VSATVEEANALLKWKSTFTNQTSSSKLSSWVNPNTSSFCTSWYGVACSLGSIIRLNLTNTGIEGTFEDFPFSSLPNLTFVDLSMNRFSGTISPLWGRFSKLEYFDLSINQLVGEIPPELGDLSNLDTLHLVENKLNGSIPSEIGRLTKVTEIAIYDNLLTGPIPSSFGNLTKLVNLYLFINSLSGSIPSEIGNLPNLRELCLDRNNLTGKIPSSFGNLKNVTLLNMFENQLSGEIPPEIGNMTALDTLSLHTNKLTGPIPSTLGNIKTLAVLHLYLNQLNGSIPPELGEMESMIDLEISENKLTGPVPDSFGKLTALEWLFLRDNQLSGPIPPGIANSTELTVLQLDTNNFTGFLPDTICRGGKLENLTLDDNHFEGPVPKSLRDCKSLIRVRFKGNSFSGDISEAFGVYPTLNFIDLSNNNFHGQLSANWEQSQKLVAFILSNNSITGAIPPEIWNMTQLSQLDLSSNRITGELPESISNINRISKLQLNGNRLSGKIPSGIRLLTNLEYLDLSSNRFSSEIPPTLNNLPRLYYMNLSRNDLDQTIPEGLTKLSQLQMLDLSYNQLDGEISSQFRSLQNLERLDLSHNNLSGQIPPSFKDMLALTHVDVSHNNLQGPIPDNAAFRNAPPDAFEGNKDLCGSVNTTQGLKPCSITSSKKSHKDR

[10] = molecular target: T1, MIK2^ECD; assay: Surface plasmon resonance (SPR); type: binding; conditions: CM5 chip with immobilized MIK2^ECD
[11] = system: MIK2^ECD-BAK1^ECD; assay: Gel filtration of MIK2^ECD and BAK1^ECD; type: biochemical, Arabidopsis thaliana; conditions: 0.1 mg peptide, 10 mM Bis-Tris pH 6.0, 100 mM NaCl, on ice 1 h
Description: The ECD domains of MIK2 (MIK2^ECD) and BAK1 (BAK1^ECD) fused with a 6 × HIS tag at the C-terminus were expressed using the Bac-to-Bac baculovirus expression system (Invitrogen) in High Five cells at 22 °C[25]. One liter of cells (1.8 × 10^6 cells per mL cultured in the medium from Expression Systems) was infected with 20 mL baculovirus and the media were harvested after 48 h of infection. The secreted MIK2^ECD-6 × HIS and BAK1^ECD-6 × HIS proteins were purified using Ni-NTA (Novagen) and size-exclusion chromatography (Hiload 200, GE Healthcare) in buffer containing 10 mM Bis-Tris pH 6.0 and 100 mM NaCl.
The purified MIK2^ECD proteins (0.5 mg for each) and BAK1^ECD proteins (0.2 mg for each) were incubated together with SCOOP12 or SCOOP12^SS/AA (0.1 mg for each) in a buffer containing 10 mM Bis-Tris, pH 6.0, 100 mM NaCl on ice for 1 h. Then, each of the mixtures was separated by gel filtration (Hiload 200, GE Healthcare) with a flow rate of 0.8 mL/min and an injection volume of […] at 4 °C, and the peak fractions were separated on SDS-PAGE followed by Coomassie blue (CBB) staining.

[12] = system: mik2-1 and mik2-2 mutant seedlings; type: in vivo, Arabidopsis thaliana; conditions: individual values, one per line
[13] = system: Arabidopsis WT seedling roots; assay: Microscopy of root browning and root meristems, WT; type: in vivo, Arabidopsis thaliana
[14] = system: Arabidopsis WT seedlings; assay: ROS assay (luminol), WT seedlings; type: in vivo, Arabidopsis thaliana; conditions: WT seedlings
Description: as §1

[15] = system: MPK3, MPK4 and MPK6 phosphorylation, WT seedlings; assay: MAPK assay (α-pERK1/2 immunoblot), WT; type: in vivo, Arabidopsis thaliana
Description: (§2) Ten-day-old seedlings grown vertically on ½MS plates were transferred to ddH2O overnight for recovery. Then, ddH2O was replaced by 100 nM peptides for the indicated time.

[16] = system: MPK3, MPK4 and MPK6 phosphorylation, bak1-4 and bak1-5/serk4 seedlings; assay: MAPK assay (α-pERK1/2 immunoblot), coreceptor mutants; type: in vivo, Arabidopsis thaliana
Description: as §2

[17] = system: MYB51 promoter, pMYB51::GUS seedling roots; assay: Histochemical GUS staining, pMYB51::GUS; type: in vivo, Arabidopsis thaliana; conditions: pMYB51::GUS seedlings, 1 µM, 3 h
Excerpt: Stained samples were fixed with a 3:1 ethanol:acetic acid solution overnight and cleared by lactic acid and photographed with the Olympus SZX10 stereoscopic microscope equipped with DP27 camera.

[18] = system: WRKY30, WRKY33 and CYP81F2 expression, WT seedlings; assay: RT-qPCR of defense genes, WT; type: in vivo, Arabidopsis thaliana
[19] = system: WRKY30, WRKY33 and CYP81F2 expression, mik2 seedlings; assay: RT-qPCR of defense genes, mik2 mutants; type: in vivo, Arabidopsis thaliana
[20] = system: WT roots and leaf protoplasts; assay: TAMRA-SCOOP12 binding and competition in vivo, WT (confocal); parameters: species or system Arabidopsis thaliana; conditions: 100 nM TAMRA-SCOOP12, 5 min
[21] = system: mik2-1 roots and leaf protoplasts; assay: TAMRA-SCOOP12 binding in vivo, mik2-1 (confocal); parameters: species or system Arabidopsis thaliana; conditions: mik2-1, 100 nM TAMRA-SCOOP12, 5 min

MAQSWLKEESSSSHSERAGGR [FocSCOOPL, SCOOPL peptide from F. oxysporum f. sp. conglutinans strain Fo5176]
ROS production in mik2 [1]: blocked in mik2
ROS production in bak1-4 ([2]; bak1-4, 100 nM SCOOP12): blocked in mik2 (h), and in bak1-4
ROS production in bak1-5/serk4 ([2]; bak1-5/serk4, 100 nM SCOOP12 or 1 µM FocSCOOPL): compromised in the bak1-5/serk4
ROS production in bik1/pbl1 [3]: compromised in the bak1-5/serk4, bik1/pbl1, and rbohD mutants
ROS production in rbohD [4]: compromised in the bak1-5/serk4, bik1/pbl1, and rbohD mutants
concentration inducing cytosolic Ca^2+ increase ([5]; in vivo): 100 nM
cytosolic Ca^2+ increase ([5]; in vivo): triggers the cytosolic Ca^2+ increase
MAPK activation in mik2 [6]: blocked in mik2-1
MIK2-BAK1 association in protoplasts [7]: induces MIK2-BAK1 association

MGSGASGPVRSAQASQAGGR [SCOOP12SS/AA, Alanine substitutions on two conserved serine residues in the SxS motif of SCOOP12]
root growth inhibition of SCOOP12^SS/AA ([8]; Supplementary Fig. 5d, e): abolished its activities to inhibit root growth through MIK2
binding to MIK2^ECD, ITC [9]: No binding was detected
binding to MIK2^ECD, SPR [10]: nearly no binding
MIK2^ECD-BAK1^ECD dimerization [11]: unable to induce the dimerization between MIK2^ECD and BAK1^ECD

RPPTAPIYLPPSKSRKGKGP [SCOOP13, synthesized SCOOP peptide corresponding to the SxS motif]
root growth inhibition ([8]; in vivo): inhibited root growth to various degrees, with SCOOP10^B and 13 being the most active; also recorded: potent in inhibiting root growth
Root length (Fig. 3e) ([12]; mik2-1): 22.796 and 23.072 and 22.084 and 23.813 and 22.472 and 23.316 and 25.007 and 26.178 and 24.196 and 22.194
Root length (Fig. 3e) ([12]; mik2-2): 23.916 and 28.782 and 22.331 and 28.855 and 26.162 and 23.502 and 23.674 and 22.828 and 26.36 and 25.263 and 22.35
root browning ([13]; WT seedlings, prolonged treatment): led to brown roots
root meristem distortion ([13]; WT, 5-day-old seedlings, 1 µM, 48 h, PI staining): distorted root meristems
ROS production, total luminescence (Fig. 2h) ([14]; repeat 1): 1290342
ROS production, total luminescence (Fig. 2h) ([14]; repeat 2): 1525381
ROS production, total luminescence (Fig. 2h) ([14]; repeat 3): 622461
ROS production, SCOOP13 and 14 relative to other SCOOPs, and Ca^2+ bursts ([5]; Ca^2+ and ROS bursts, 100 nM): relatively weak activities for Ca^2+ and ROS bursts
MAPK activation in shoots and roots ([15]; Supplementary Fig. 3i): triggered the MAPK activation in both shoots and roots
MAPK activation in bak1-4 ([16]; bak1-4): reduced in bak1-4
MAPK activation in bak1-5/serk4 ([16]; bak1-5/serk4): substantially blocked in bak1-5/serk4
MYB51 promoter activity in roots [17]: induced the promoter activities of MYB51
WRKY30, WRKY33 and CYP81F2 expression ([18]; 1 µM, 1 h, RT-qPCR): upregulation
CYP81F2 expression (Fig. 3i) ([18]; repeat 1): 41.34
CYP81F2 expression (Fig. 3i) ([18]; repeat 2): 47.71
CYP81F2 expression (Fig. 3i) ([18]; repeat 3): 93.81
CYP81F2 expression (Fig. 3i) ([18]; repeat 4): 121.82
CYP81F2 expression (Fig. 3i) ([19]; mik2-1, repeat 1): 0.33
CYP81F2 expression (Fig. 3i) ([19]; mik2-1, repeat 2): 0.51
CYP81F2 expression (Fig. 3i) ([19]; mik2-1, repeat 3): 2.20
CYP81F2 expression (Fig. 3i) ([19]; mik2-1, repeat 4): 5.48
CYP81F2 expression (Fig. 3i) ([19]; mik2-2, repeat 1): 3.17
CYP81F2 expression (Fig. 3i) ([19]; mik2-2, repeat 2): 4.70
CYP81F2 expression (Fig. 3i) ([19]; mik2-2, repeat 3): 4.82
CYP81F2 expression (Fig. 3i) ([19]; mik2-2, repeat 4): 7.05
WRKY30, WRKY33 and CYP81F2 expression ([19]; mik2 mutants, 1 µM, 1 h, RT-qPCR): abolished in mik2 mutants

TAMRA-MGSGASGPVRSSQSSQAGGR [TAMRA-SCOOP12, red fluorescent tetramethylrhodamine (TAMRA)-labeled SCOOP12 peptides at its N-terminus]
bioactivity of labelled peptide: root growth inhibition vs SCOOP12 ([8]; Supplementary Fig. 5a, b, MIK2-dependent): slightly lesser extent than SCOOP12
MAPK activation by labelled peptide vs SCOOP12 ([15]; Supplementary Fig. 5c, MIK2-dependent): slightly lesser extent than SCOOP12
red fluorescent labelling of root tips and leaf protoplasts [20]: Red fluorescent signals were detected
red fluorescent labelling of root tips and leaf protoplasts [21]: not in mik2-1
